pIC50: −log10 of the molar value. Calls of active or inactive are those of the source. No cut-off for these calls is given here. Where only a bound is given, the exact number is not on record here.

For data set [1], the system named is K562. Nature of the data set: Antiproliferative activity against human K562 cells after 72 hrs by MTT assay. Type of data set: functional, cell-based. As to conditions: K562, 72 h. A general note: Tetrazolium assays rely on reduction of a dye to a coloured formazan, in cell work by metabolically active cells.
The test system of data set [2] is KB. Nature of the data set: Antiproliferative activity against human KB cells after 72 hrs by MTT assay. Type of data set: functional, cell-based.
Data set [3] relates to HCT-8. Put plainly: Antiproliferative activity against human HCT8 cells after 72 hrs by MTT assay. As to conditions: HCT-8, 72 h. Type of data set: functional, cell-based.
The subject of data set [4] is MDA-MB-231. Put plainly: Antiproliferative activity against human MDA-MB-231 cells after 72 hrs by MTT assay. As to conditions: MDA-MB-231, 72 h. Type of data set: functional, cell-based.
Data set [5] deals with L02. Nature of the data set: Cytotoxicity against human LO2 cells after 72 hrs by MTT assay. Type of data set: cell-based. The settings on record: L02, 72 h.
Data set [6] can be described thus: Selectivity index, ratio of IC50 for human LO2 cells to IC50 for human HepG2 cells. As to conditions: LO2 cells and HepG2 cells, read-out: Ratio IC50. Type of data set: toxicity.
Data set [7] concerns HepG2. Nature of the data set: cells. The settings on record: Homo sapiens, HepG2, 72 h.
In data set [8] the test system is K562. Nature of the data set: Cell cycle arrest in human K562 cells assessed as decrease in cdc2 expression after 48 hrs by Western blot analysis. Type of data set: functional, cell-based. On the technique in general: A western blot detects proteins with antibodies after separation by electrophoresis.
In data set [9] the test system is K562. Put plainly: Cell cycle arrest in human K562 cells assessed as decrease in cyclin B1 expression after 48 hrs by Western blot analysis. Type of data set: functional, cell-based.
Data set [10] has as its target T1, Tubulin (Sus scrofa) (UniProt P02554+P02550). Nature of the data set: Inhibition of porcine brain tubulin polymerization measured every 2 mins for 60 mins by spectrophotometric analysis.
The target in data set [11] is T1, Tubulin (Sus scrofa). Nature of the data set: Inhibition of [3H]colchicine binding to biotinylated porcine tubulin at 1 uM after 2 hrs by scintillation proximity assay relative to control. Type of data set: protein assay. For orientation: Scintillation proximity formats need no separation of bound from free tracer.
Data set [12] has as its target T1, Tubulin (Sus scrofa). Nature of the data set: Inhibition of [3H]colchicine binding to biotinylated porcine tubulin at 5 uM after 2 hrs by scintillation proximity assay relative to control. Type of data set: protein assay.
Data set [13] deals with K562. Nature of the data set: Cell cycle arrest in human K562 cells assessed as decrease in cdc25c expression after 48 hrs by Western blot analysis. Type of data set: functional, cell-based.
The subject of data set [14] is K562. Nature of the data set: Induction of apoptosis in human K562 assessed as nuclear fragmentation at 5 to 20 nM after 48 hrs by Hoechst 33342 staining-based fluorescence microscopic analysis. Type of data set: functional, cell-based.
Data set [15] deals with K562. Nature of the data set: Induction of apoptosis in human K562 assessed as chromatin condensation at 5 to 20 nM after 48 hrs by Hoechst 33342 staining-based fluorescence microscopic analysis. Type of data set: functional, cell-based.
Data set [16] relates to K562. Put plainly: Induction of apoptosis in human K562 assessed as upregulation of Bad expression after 48 hrs by Western blot analysis. Type of data set: functional, cell-based.
Data set [17] deals with K562. Nature of the data set: Induction of apoptosis in human K562 assessed as upregulation of Bax expression after 48 hrs by Western blot analysis. Type of data set: functional, cell-based.
Data set [18] relates to K562. Nature of the data set: Induction of apoptosis in human K562 assessed as down regulation of Bcl-2 expression after 48 hrs by Western blot analysis. Type of data set: functional, cell-based.
Data set [19] relates to K562. Put plainly: Induction of apoptosis in human K562 assessed as down regulation of Bcl-xl expression after 48 hrs by Western blot analysis. Type of data set: functional, cell-based.
Data set [20] relates to K562. Nature of the data set: Induction of ROS generation in human K562 cells after 48 hrs by DCF-DA probe-based flow cytometric analysis. Type of data set: functional, cell-based.
Data set [21] has as its system K562. Nature of the data set: Induction of ROS generation in human K562 cells up to 20 nM after 48 hrs in presence of N-acetyl-cycteine by DCF-DA probe-based flow cytometric analysis. Type of data set: functional, cell-based.
Data set [22] has as its system MDA-MB-231. Nature of the data set: Antimigratory activity against human MDA-MB-231 cells after 48 hrs by transwell assay. Type of data set: functional, cell-based.
Data set [23] has as its system MDA-MB-231. Put plainly: Antiinvasive activity against human MDA-MB-231 cells after 48 hrs by crystal violet staining-based transwell assay. Type of data set: functional, cell-based.
Data set [24] has as its system HUVEC. Nature of the data set: Antimigratory activity against human HUVEC cells at 20 nM after 24 hrs by wound healing assay. Type of data set: functional, cell-based.
In data set [25] the test system is HUVEC. Put plainly: Inhibition of tube formation in human HUVEC cells at 5 to 20 nM after 6 hrs by tube formation assay. Type of data set: functional, cell-based.
The subject of data set [26] is Homo sapiens. Nature of the data set: Antitumor activity against […] H22 cells xenografted in ICR mouse assessed as reduction in tumor volume administered intravenously once daily for 21 consecutive days and measured every 2 days. Type of data set: functional.
Data set [27] deals with Homo sapiens. Nature of the data set: Antivascular activity against […] H22 cells xenografted in ICR mouse assessed as decrease in tumor microvessel density at 20 mg/kg, iv qd […] every 2 days for 21 days by CD31/hematoxylin staining-based immunohistochemistry assay. Type of data set: functional, organism-based.
For data set [28], the system named is Homo sapiens. Nature of the data set: Antitumor activity against […] H22 cells xenografted in ICR mouse assessed as reduction in tumor weight administered intravenously once daily for 21 consecutive days and measured every 2 days. Type of data set: functional.
Data set [29] has as its system Homo sapiens. Nature of the data set: Antitumor activity against […] H22 cells xenografted in ICR mouse assessed as reduction in tumor volume at 20 mg/kg, iv qd for 21 consecutive days and measured every 2 days relative to control. Type of data set: functional, organism-based.
Data set [30] deals with Tubulin (Homo sapiens) (UniProt P68371+Q9H4B7+P0DPH7+P68366+Q13509+Q71U36+P04350+Q3ZCM7+P07437+P68363+Q9BQE3+Q6PEY2+Q13885+Q9BVA1+Q9BUF5). Nature of the data set: Disruption of microtubule network in human K562 cells at 30 nM after 24 hrs by scanning confocal microscopic analysis.
Data set [31] is described as follows: Aqueous solubility in pH 7.4 phosphate buffer by HPLC analysis. Type of data set: physicochemical.
The nature of data set [32]: Antitumor activity against […] H22 cells xenografted in ICR mouse assessed as reduction in tumor weight at 20 mg/kg, iv qd for 21 consecutive days and measured every 2 days relative to control. Type of data set: functional. Details: scale not given: the % may be the effect or the level left.
The nature of data set [33]: Toxicity in ICR mouse xenografted with […] cells assessed as decrease in body weight at 10 to 20 mg/kg, iv qd administered for 21 days and measured every 2 days. Type of data set: organism-based. As to conditions: in vivo.

T1 sequence (P02550 whole entry, looked up): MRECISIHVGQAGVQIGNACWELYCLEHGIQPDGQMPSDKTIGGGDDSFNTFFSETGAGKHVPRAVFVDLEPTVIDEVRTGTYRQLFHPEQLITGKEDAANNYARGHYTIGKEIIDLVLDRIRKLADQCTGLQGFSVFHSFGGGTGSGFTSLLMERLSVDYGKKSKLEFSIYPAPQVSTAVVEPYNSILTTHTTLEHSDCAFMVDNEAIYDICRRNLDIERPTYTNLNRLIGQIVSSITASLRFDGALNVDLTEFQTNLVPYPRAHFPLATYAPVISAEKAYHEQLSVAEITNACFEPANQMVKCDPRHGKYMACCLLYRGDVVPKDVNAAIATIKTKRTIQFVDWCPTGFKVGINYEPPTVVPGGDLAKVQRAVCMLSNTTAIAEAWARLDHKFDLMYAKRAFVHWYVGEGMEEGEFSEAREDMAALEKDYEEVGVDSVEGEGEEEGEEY
T1 sequence (P02554 whole entry, looked up): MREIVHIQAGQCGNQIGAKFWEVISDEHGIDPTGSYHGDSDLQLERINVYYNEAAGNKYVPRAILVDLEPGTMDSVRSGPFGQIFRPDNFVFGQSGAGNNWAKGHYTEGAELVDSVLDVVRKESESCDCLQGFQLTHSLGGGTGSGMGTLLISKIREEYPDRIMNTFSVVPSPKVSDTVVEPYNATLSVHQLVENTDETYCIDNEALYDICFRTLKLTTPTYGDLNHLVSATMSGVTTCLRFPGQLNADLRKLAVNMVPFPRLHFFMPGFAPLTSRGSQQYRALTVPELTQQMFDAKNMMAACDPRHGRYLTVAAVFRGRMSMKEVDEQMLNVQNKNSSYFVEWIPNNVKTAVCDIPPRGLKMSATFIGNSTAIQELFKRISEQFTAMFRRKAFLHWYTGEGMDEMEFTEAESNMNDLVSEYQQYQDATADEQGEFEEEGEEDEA

One may read the pIC50 as the IC50 on a negative log10 scale, so that one unit is a factor of ten. As to `CNc1cc(C(=O)/C(C)=C/c2ccc(OC)c(O)c2)c2ccccc2n1`, the pIC50 is 7.74 in [1]; 7.54 in [2]; 7.40 in data set [3]; 7.37 in data set [4]; 5.96 in data set [5]; 7.57 in data set [7]. Also, the selectivity ratio in data set [6] worked out at 40.2.
Turning to `COc1ccc2c(/C=C(\C)C(=O)c3cc(C)nc4ccccc34)c[nH]c2c1`, the pIC50 in data set [1] is less than 6.00.
Take `COc1ccc(/C=C(\C)C(=O)c2cc(N(C)C)nc3ccccc23)cc1O`: the pIC50 in [1] is 7.31; in data set [2], 7.37; in data set [3] it was 7.28; in data set [4] it was 7.32; in data set [7], 7.24.
In data set [1], `COc1ccc(/C=C(\C)C(=O)c2cc(=O)[nH]c3ccccc23)cc1O` had a negative-log IC50 (pIC50) of 5.91.
Consider `COc1cc(C(=O)/C(C)=C/c2ccc(OC)c(O)c2)c2ccccc2n1`, for which the negative-log IC50 (pIC50) was 7.59 in [1]; 7.28 in data set [2]; 7.21 in [3]; 7.28 in data set [4]; 6.04 in data set [5]; 7.42 in data set [7]. The selectivity ratio in [6] stood at 24.1.
As usually defined, the inhibition is the percentage by which the read-out fell short of the control. On to `COc1ccc(/C=C(\C)C(=O)c2cc(C)nc3ccccc23)cc1O`, for which the Activity result in data set [8], in data set [9], in data set [13], in [16], in data set [17] and in data set [18] was “Dose-dependent effect” each time. For the same compound, the Activity entry in data set [19], in [20], in data set [22], in [23], in data set [26] and in data set [28] was “Dose-dependent effect” in each case. Further, the inhibition result in [10] was “Dose-dependent effect”; in data set [11], 79.4%; in data set [12], 92.7%. Besides, the result in data set [14], in data set [15], in data set [24], in [27], in data set [29] and in [30] was Active. The result in data set [21] was inactive. Also, the inhibition result in data set [25] was “Active”.
For the compound `COc1ccc(/C=C/C(=O)c2cc(C)nc3ccccc23)cc1N`, the negative logarithm of the IC50 (pIC50) was 6.07 in [1]; 6.72 in data set [2]; 6.68 in data set [3]; 6.71 in [4]; 6.65 in [7].
By solubility is commonly meant the concentration that dissolves in the medium under given conditions. Compound `COc1ccc(/C=C(\C)C(=O)c2cc(C)nc3ccccc23)cc1O.Cl` displayed a solubility in [31] greater than 1 mg/mL. For the same compound, the Activity in data set [32] was 68.9%; in data set [33], “Non-Toxic”.
Turning to `COc1ccc(/C=C(\C)C(=O)c2cc(N3CCCC3)nc3ccccc23)cc1O`, the pIC50 in data set [1] is 6.50.
On to `COc1ccc(/C=C(\C)C(=O)c2cc(C)nc3ccccc23)cc1`, for which, in data set [1], the pIC50 was 6.97.
In the case of `COc1ccc(/C=C(\C)C(=O)c2ccnc3ccccc23)cc1O`, the pIC50 in data set [1] is 7.82; in [2], 7.59; in [3], 7.43; in data set [4], 7.52; in data set [5] it was 6.03; in data set [7] it was 7.62. Also, the selectivity ratio in data set [6] was determined as 38.7.
For the compound `COc1ccc(/C=C(\C)C(=O)c2cc(N3CCOCC3)nc3ccccc23)cc1O`, the pIC50 in [1] was 6.82.
Turning to `Cc1cc(C(=O)/C=C/c2cccc3[nH]ccc23)c2ccccc2n1`, the pIC50 in data set [1] was less than 6.00.
Same read-out and setting: the value for `COc1ccc(/C=C(\C)C(=O)c2cc(C)nc3ccccc23)cc1OC` was 5.98.
In the case of `COc1ccc(/C=C/C(=O)c2cc(C)nc3ccccc23)cc1O`, the pIC50 is 6.90 in data set [1]; 6.91 in [2]; 6.86 in data set [3]; 6.95 in data set [4]; 6.92 in data set [7].
On the same counts, the results for `COc1ccc(/C=C(\C)C(=O)c2cc(Cl)nc3ccccc23)cc1O` are 7.28, 6.63, 6.64, 6.74 and 6.73.
In [1], `COc1ccc(/C=C(\C)C(=O)c2cc(NC3CC3)nc3ccccc23)cc1O` had a pIC50 of 7.24.

The values are drawn from ChEMBL document CHEMBL4330075, “Discovery of Novel Quinoline-Chalcone Derivatives as Potent Antitumor Agents with Microtubule Polymerization Inhibitory Activity” (J Med Chem, 2019).
